According to patent US11299496B2, “Ligands for alpha-7 nicotinic acetylcholine receptors and methods of treating neurological and inflammatory conditions” (Northeastern University, priority 2014, dated 2022):

Biological target: T1, human alpha-7 nAChR (Homo sapiens, UniProt P36544)
T1 construct: expressed in transfected cells; host or cells: Xenopus laevis oocytes (cRNA injection)
Test: Two-electrode voltage clamp of alpha-7 nAChR expressed in Xenopus oocytes (net charge)
Assay type: cell-based
Settings: area under the curve of current vs. time; for Charge Alone: compound alone acting as an allosteric agonist; for Charge +C: compound together with choline or ACh, includes PAM and ago-PAM activity; call rule not given here
Description: The human alpha-7 nAChR receptor clone was obtained from Dr. Jon Lindstrom {University of Pennsylvania, Philadelphia, Pa.), aid the RIC-3 clone from Dr. Millet Treinin (Hebrew University, Jerusalem, Israel) for the purpose of co-injection with a7 to improve the level and speed of receptor expression (Halevi et al., 2003). After linearization and purification of cloned cDNA's, RNA, transcripts were prepared rising the appropriate mMessage mMachine kit tiom Ambion (Austin, Tex.).
Expression in X, laeivis Oocytes
Oocytes were obtained from mature (>9 cm) female Xenopus laeivis African frogs (Nasco, Ft. Atkinson, Wis.). Frogs were anesthetized in 0.7 g/L solution of ethyl 3-aminobenzoate methanesulfonate buffered with sodium bicarbonate, and oocytes were surgically removed through an abdominal incision. Harvested oocytes were treated with 1.25 mg/ml collagenase (Worthington Biochemicals, Freehold, N.J.) in calcium-free Barth's solution (88 mM NaCl, 1 mM KCl, 2.38 mM NaHCO3, 0.82 mM MgSO4, 15 mM HEPES, 12 mg/L tetracycline, pH 7.6) for 3-4 hours to remove the follicular layer. Stage-5 oocytes were isolated and injected with 50 nL (5-20 ng) of human alpha-7 and RIC-3 cRNA. Suitable levels of receptor expression were typically achieved 2-6 days after injection of cRNA. For experiments involving the PAM 4BP-TQS/GAT-107, where standard levels of expression result in ion currents too large to be recorded in voltage clamp, experiments were typically conducted 1-3 days after RNA injection.
Two-electrode voltage clamp experiments were conducted using OpusXpress6000A (Molecular Devices, Sunnyvale, Calif.), an integrated system that provides automated impalement and voltage clamp of up to eight oocytes in parallel. Both the current and voltage electrodes were filled with 3 M KCl, and oocytes were clamped at a holding potential of −60 mV. Data were collected at 50 Hz and filtered at 20 Hz. The oocytes were bath-perfused with Ringer's solution (115 mM NaCl, 10 mM HEPES, 2.5 mM KCl, 1.8 mM CaCl2, pH 7.3), and agonist solutions were delivered from a 96-well drug plate using disposable tips. Flow rates were set at 2 mL/min, with each drug or control solution delivered in 12 s durations, followed˜by 181 s washouts with Ringer's unless noted otherwise.
Experimental Protocols and Data Analysis
Responses of human alpha-7 receptors to agonists were measured as both peek current and net charge measured over a 120 s period beginning with the compound application (Papke and Papke, 2002). […] In experiments involving positive allosteric modulators (PAMs), the fast desensitization of alpha-7 was eliminated, allowing peak currents to be used as a valid measurement of the receptor-mediated responses (Wang et al., 2012; Williams et al., 2011).
Oocytes received two control ACh applications prior to receiving any drug in order to establish a steady reference response, and they received one or more control ACh applications at the end of all experiments. For experiments involving drug incubation through bath applications, all responses were normalized to the average of two ACh control responses taken immediately prior to the switch of bath solution, for each cell individually. These normalization procedures had the effect of compensating for differing levels of receptor expression among the multiple oocytes used in each experiment. Each experiment was conducted on at least four oocytes, with mean values and standard errors (S.E.M.) calculated from their normalized responses. […]

T1 sequence (P36544 23-502): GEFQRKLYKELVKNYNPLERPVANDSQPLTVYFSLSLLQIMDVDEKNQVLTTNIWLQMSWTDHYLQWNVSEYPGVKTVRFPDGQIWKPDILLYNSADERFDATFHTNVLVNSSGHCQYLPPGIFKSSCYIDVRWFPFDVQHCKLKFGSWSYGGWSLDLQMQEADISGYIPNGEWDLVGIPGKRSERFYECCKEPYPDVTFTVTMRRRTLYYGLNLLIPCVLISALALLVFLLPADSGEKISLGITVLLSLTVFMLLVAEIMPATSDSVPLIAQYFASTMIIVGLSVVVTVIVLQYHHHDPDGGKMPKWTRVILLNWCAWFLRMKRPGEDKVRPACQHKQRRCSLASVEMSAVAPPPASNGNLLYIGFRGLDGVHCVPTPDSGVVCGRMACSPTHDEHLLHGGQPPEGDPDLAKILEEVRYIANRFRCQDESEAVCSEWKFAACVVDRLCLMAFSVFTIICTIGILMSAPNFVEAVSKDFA

Charge Alone | Charge +C | Compound
Inactive | Inactive | CS(=O)(=O)c1ccc2c(c1)[C@H]1C=CC[C@H]1[C@@H](c1ccc(Br)cc1)N2 [Compound 117, 4-(4-bromophenyl)-8-(methylsulfonyl)-3a,4,5,9b-tetrahydro-3H-cyclopenta[c]quinolone]
Inactive | Inactive | CC(C)(C)NS(=O)(=O)c1ccc2c(c1)[C@H]1C=CC[C@H]1[C@@H](c1ccc(Br)cc1)N2 (stereo in doubt) [Compound 101, 4-(4-bromophenyl)-N-(tert-butyl)-3a,4,5,9b-tetrahydro-3H-cyclopenta[c]quinoline-8-sulfonamide]
116 | 156 | NS(=O)(=O)c1ccc2c(c1)[C@H]1C=CC[C@H]1[C@@H](c1ccc3sccc3c1)N2 (stereo in doubt) [Compound 96, 4-(benzo[b]thiophen-5-yl)-3a,4,5,9b-tetrahydro-3H-cyclopenta[c]quinoline-8-sulfonamide]
Inactive | Inactive | NS(=O)(=O)c1ccc2c(c1)[C@H]1C=CC[C@H]1CN2 (stereo in doubt) [Compound 33, 3a,4,5,9b-tetrahydro-3H-cyclopenta[c]quinoline-8-sulfonamide]
52 | 487 | CC(C)(C)COC(=O)c1ccc([C@H]2Nc3ccc(S(N)(=O)=O)cc3[C@H]3C=CC[C@H]32)cc1 (stereo in doubt) [Compound 70, neopentyl4-(8-sulfamoyl-3a,4,5,9b-tetrahydro-3H-cyclopenta[c]quinolin-4-yl)benzoate]
Inactive | Inactive | CNS(=O)(=O)c1ccc2c(c1)[C@H]1C=CC[C@H]1[C@@H](c1ccc(Br)cc1)N2 (stereo in doubt) [Compound 22, 4-(4-bromophenyl)-N-methyl-3a,4,5,9b-tetrahydro-3H-cyclopenta[c]quinoline-8-sulfonamide]
Inactive | Inactive | NS(=O)(=O)c1cccc2c1N[C@H](c1ccc(Br)cc1)[C@@H]1CC=C[C@H]21 (stereo in doubt) [Compound 11, 4-(4-bromophenyl)-3a,4,5,9b-tetrahydro-3H-cyclopenta[c]quinoline-6-sulfonamide]

Continued, molecule first:

Compound | Charge Alone | Charge +C
CC(C)(C)CCCc1ccc([C@H]2Nc3ccc(S(N)(=O)=O)cc3[C@H]3C=CC[C@H]32)cc1 (stereo in doubt) [Compound 66, 4-(4-(4,4-dimethylpentyl)phenyl)-3a,4,5,9b-tetrahydro-3H-cyclopenta[c]quinoline-8-sulfonamide] | 330 | 1240
O=S(=O)(NC1CCC1)c1ccc2c(c1)[C@H]1C=CC[C@H]1[C@@H](c1ccc(Br)cc1)N2 [Compound 104, 4-(4-bromophenyl)-N-cyclobutyl-3a,4,5,9b-tetrahydro-3H-cyclopenta[c]quinoline-8-sulfonamide] | Inactive | Inactive
NS(=O)(=O)c1ccc2c(c1)[C@H]1C=CC[C@H]1[C@@H](c1ccc(NC(=O)OC3C4CC5CC(C4)CC3C5)cc1)N2 (stereo in doubt) [Compound 63, adamantan-2-yl (4-(8-sulfamoyl-3a,4,5,9b-tetrahydro-3H-cyclopenta[c]quinolin-4-yl)phenyl)carbamate] | 5 | 25
NS(=O)(=O)c1ccc2c(c1)N[C@H](c1ccc(Br)cc1)[C@@H]1CC=C[C@H]21 (stereo in doubt) [Compound 10, 4-(4-bromophenyl)-3a,4,5,9b-tetrahydro-3H-cyclopenta[c]quinoline-7-sulfonamide] | Inactive | Inactive
CCNS(=O)(=O)c1ccc2c(c1)[C@H]1C=CC[C@H]1[C@@H](c1ccc(Br)cc1)N2 [Compound 114] | Inactive | Inactive
